Here are results for six molecules from ChEMBL document CHEMBL1201862, “PubChem BioAssay data set” (2004).

Experiment [1] addresses T1, Runt-related transcription factor 1/Core-binding factor subunit beta (Homo sapiens, UniProt Q01196+Q13951). The experiment in a line: disruptors of Runt domain/CBFb-SMMHC interaction – biochemical, FRET, Cerulean-Runt, Venus-CBFb-SMMHC, uHTS, […] (AID 1434). Format: protein assay.
In experiment [2] the target is T1, Runt-related transcription factor 1/Core-binding factor subunit beta. The experiment in a line: Runt domain/CBFb-SMMHC interaction disruptors – biochemical, TR-FRET (AID 1438). In kind it is protein assay. Background: TR-FRET usually uses a lanthanide donor and a delayed reading to cut background.
Experiment [3] deals with Induced myeloid leukemia cell differentiation protein Mcl-1 (Homo sapiens, UniProt Q07820). In kind it is functional.
The target in experiment [4] is T2, Corticotropin-releasing factor receptor 2/Corticotropin-releasing factor-binding protein (Homo sapiens, UniProt P24387+Q13324).
T2 sequence (Q13324 whole entry): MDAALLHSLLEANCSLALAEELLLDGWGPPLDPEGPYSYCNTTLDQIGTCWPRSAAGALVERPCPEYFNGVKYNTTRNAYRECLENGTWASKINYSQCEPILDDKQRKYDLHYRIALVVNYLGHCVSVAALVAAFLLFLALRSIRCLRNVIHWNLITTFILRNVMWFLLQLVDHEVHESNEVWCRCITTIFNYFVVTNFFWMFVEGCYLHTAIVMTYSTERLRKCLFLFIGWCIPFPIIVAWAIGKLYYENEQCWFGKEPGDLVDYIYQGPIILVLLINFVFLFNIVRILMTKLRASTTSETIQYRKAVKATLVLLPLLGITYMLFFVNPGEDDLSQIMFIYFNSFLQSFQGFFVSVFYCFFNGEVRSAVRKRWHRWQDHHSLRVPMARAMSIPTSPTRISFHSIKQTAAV
T2 sequence (P24387 whole entry): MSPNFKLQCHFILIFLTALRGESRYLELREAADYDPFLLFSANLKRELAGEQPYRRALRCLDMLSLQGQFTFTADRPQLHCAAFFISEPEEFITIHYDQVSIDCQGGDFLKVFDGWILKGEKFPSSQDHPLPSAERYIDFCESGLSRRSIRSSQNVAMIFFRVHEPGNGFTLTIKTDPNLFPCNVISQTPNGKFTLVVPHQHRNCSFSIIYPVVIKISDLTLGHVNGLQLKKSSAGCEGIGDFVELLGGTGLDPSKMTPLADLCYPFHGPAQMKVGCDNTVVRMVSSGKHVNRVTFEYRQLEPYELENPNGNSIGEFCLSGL
The experiment in a line: activators of CRF receptor 2 with binding protein – uHTS hits, confirmation (AID 602473). Format: functional. As to conditions: read-out: EC50_Mean.

The target of experiment [5] is T3, Probable nicotinate-nucleotide adenylyltransferase (Staphylococcus aureus (strain N315), UniProt P65502). In kind it is functional, Staphylococcus aureus subsp. aureus N315.
The target of experiment [6] is T3, Probable nicotinate-nucleotide adenylyltransferase. Format: functional, Staphylococcus aureus subsp. aureus N315. The following applies: read-out: IC50_Mean.
In experiment [7] the target is T4, Low molecular weight phosphotyrosine protein phosphatase (Homo sapiens, UniProt P24666).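 Note: Dose-response confirmation assay measuring inhibition of LMPTP enzyme activity by fluorescence intensity read-out.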
T4 sequence (P24666 whole entry): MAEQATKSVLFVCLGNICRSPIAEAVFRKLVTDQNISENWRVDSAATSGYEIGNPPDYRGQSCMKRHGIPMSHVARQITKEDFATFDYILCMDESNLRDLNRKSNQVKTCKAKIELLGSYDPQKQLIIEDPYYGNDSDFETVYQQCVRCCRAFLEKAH
Format: functional. As to conditions: read-out: IC50_Mean.

In a further experiment the target is Coagulation factor XII (Homo sapiens, UniProt P00748). Format: functional.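 Note: activated factor XIIa alpha cleaving a fluorogenic AMC peptide substrate; inhibitor potency from loss of enzyme activity.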
Experiment [8] concerns the target T5, Peroxisome proliferator-activated receptor gamma (Homo sapiens, UniProt P37231).
T5 sequence (P37231 whole entry): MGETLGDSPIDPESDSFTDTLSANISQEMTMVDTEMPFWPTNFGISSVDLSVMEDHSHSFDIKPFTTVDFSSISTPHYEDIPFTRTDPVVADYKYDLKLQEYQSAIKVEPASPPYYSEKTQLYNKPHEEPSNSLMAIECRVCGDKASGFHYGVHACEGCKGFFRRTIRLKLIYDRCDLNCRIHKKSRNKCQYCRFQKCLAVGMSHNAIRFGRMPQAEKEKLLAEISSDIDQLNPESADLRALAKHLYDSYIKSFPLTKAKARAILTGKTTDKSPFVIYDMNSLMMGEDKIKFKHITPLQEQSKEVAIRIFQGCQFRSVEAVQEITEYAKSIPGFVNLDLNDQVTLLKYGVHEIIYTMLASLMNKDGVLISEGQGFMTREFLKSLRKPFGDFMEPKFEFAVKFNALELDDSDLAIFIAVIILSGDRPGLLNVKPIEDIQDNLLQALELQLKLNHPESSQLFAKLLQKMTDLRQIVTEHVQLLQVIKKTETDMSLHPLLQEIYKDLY
The experiment in a line: competitive ligand displacement at PPARg – biochemical, TR-FRET, LanthaScreen, PPARg partial agonist project, dose response (AID 504446).

Experiment [9] concerns the target T5, Peroxisome proliferator-activated receptor gamma. The experiment in a line: competitive ligand displacement at PPARg – biochemical, fluorescence polarization, PolarScreen, PPARg partial agonist project, dose response (AID 504453). On the technique in general: Fluorescence polarisation rises when a labelled molecule tumbles more slowly, as on binding a larger partner.

For experiment [10] the target is unchanged. The experiment in a line: PPARg transcriptional activation, reporter cells – cell-based, luminescence, assay provider, dose response (AID 504447). Format: functional.
Experiment [11] concerns the target T6, RNA-binding protein pos-1 (Caenorhabditis elegans, UniProt G5EF15).
T6 sequence (G5EF15 whole entry): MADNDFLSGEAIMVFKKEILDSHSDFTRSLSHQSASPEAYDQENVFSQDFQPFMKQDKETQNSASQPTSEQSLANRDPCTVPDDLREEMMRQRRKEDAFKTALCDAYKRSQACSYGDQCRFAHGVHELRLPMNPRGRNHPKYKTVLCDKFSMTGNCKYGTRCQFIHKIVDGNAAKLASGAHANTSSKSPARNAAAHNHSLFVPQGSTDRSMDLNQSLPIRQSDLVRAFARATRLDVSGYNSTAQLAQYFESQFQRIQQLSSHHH
The experiment in a line: disruptors of C. elegans POS-1 RNA interaction – biochemical, fluorescence polarization, dose response (AID 1964).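 Note: purified POS-1 fused to maltose binding protein made in E. coli; potency of compounds blocking POS-1 binding to fluorescent RNA.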

In experiment [12] the target is T7, Zinc finger protein mex-5 (Caenorhabditis elegans, UniProt Q9XUB2).
T7 sequence (Q9XUB2 whole entry): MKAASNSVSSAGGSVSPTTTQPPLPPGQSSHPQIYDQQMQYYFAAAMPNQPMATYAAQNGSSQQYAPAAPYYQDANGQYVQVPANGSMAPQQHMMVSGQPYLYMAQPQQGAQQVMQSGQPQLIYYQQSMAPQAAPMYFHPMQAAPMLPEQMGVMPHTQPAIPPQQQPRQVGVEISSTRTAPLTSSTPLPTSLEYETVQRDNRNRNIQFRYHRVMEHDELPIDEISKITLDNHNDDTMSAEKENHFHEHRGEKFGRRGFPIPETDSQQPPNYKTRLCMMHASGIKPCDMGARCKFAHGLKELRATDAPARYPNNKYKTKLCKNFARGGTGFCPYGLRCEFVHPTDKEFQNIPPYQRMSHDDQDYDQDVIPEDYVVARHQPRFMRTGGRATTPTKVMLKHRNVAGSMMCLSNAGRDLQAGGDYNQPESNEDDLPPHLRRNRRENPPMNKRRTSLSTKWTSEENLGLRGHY
The experiment in a line: potency of MEX-5 RNA-binding blockers – biochemical, C. elegans, fluorescence polarization, dose response (AID 1960).

The target in a further experiment is Ion channel NompC (Danio rerio, UniProt Q7T1G6). The experiment in a line: Dose response cell-based high-throughput screening assay for agonists of the transient receptor potential channel N1 (TRPN1). [Related pubchem assays (depositor defined):AID1424, AID1448]. In kind it is functional.
The next experiment concerns the target Mucolipin-3 (Homo sapiens, UniProt Q8TDD5). The experiment in a line: Fluorescence counterscreen assay for […] agonists: dose response cell-based high-throughput screening assay to identify agonists of the transient receptor potential channel ML3 (TRPML3). [Related pubchem assays: 1424, 1448 ]. Format: functional. In general terms: Counterscreens check selectivity or assay interference.

Experiment [13] deals with T8, G-protein coupled receptor 35 (Homo sapiens, UniProt Q9HC97). The experiment in a line: SAR analysis of Agonists of the GPR35 Receptor using an Image-Based Assay - Set 4. [Related pubchem assays (depositor defined):AID2013, AID2026]. Format: functional.
In experiment [14] the target is T9, Cannabinoid receptor 1 (Homo sapiens, UniProt P21554). The experiment in a line: SAR analysis of agonists of the Cannabinoid Receptor 1 using an Image-Based Assay - Set 4. [Related pubchem assays (depositor defined):AID2013, AID2026]. In kind it is functional.
In experiment [15] the target is T8, G-protein coupled receptor 35. The experiment in a line: SAR analysis of Antagonists of the GPR35 Receptor using an Image-Based Assay - Set 6. [Related pubchem assays (depositor defined):AID2013, AID2026]. In kind it is functional.
Experiment [16] has as its target T9, Cannabinoid receptor 1. The experiment in a line: SAR analysis of antagonists of the Cannabinoid Receptor 1 using an Image-Based Assay - Set 4. [Related pubchem assays (depositor defined):AID2013, AID2026]. In kind it is functional.
Experiment [17] deals with G-protein coupled receptor 55 (Homo sapiens, UniProt Q9Y2T6). The experiment in a line: SAR Analysis of Selective Antagonists of GPR55 using an Image-Based Assay - Set 4. [Related pubchem assays (depositor defined):AID2013, AID2026]. Format: functional.
Experiment [18] has as its target T10, Cannabinoid receptor 2 (Homo sapiens, UniProt P34972). The experiment in a line: SAR analysis of antagonists of the Cannabinoid Receptor 2 using an Image-Based Assay - Set 3. [Related pubchem assays (depositor defined):AID2013, AID2026]. Format: functional.
Experiment [19] deals with T10, Cannabinoid receptor 2. The experiment in a line: SAR analysis of agonists of the Cannabinoid Receptor 2 using an Image-Based Assay - Set 3. [Related pubchem assays (depositor defined):AID2013, AID2026]. In kind it is functional.
For experiment [20], the target named is T11, Kappa-type opioid receptor (Homo sapiens, UniProt P41145). The experiment in a line: SAR analysis of small molecule agonists of the kappa opioid receptor via a luminescent beta-arrestin assay. [Related pubchem assays (depositor defined):AID1777, AID1786, AID1966, AID2133, AID2136, AID2348, AID2352, AID2357, AID2359, AID2370, AID2420, AID2478, AID2491, AID2492, AID2493, AID2497, AID2498, AID2500, AID449737, AID488822, AID488842]. Format: functional.

The target of experiment [21] is T12, Mu-type opioid receptor (Homo sapiens, UniProt P35372). The experiment in a line: mu opioid receptor activators, image-based, SAR follow-up (AID 2352). In kind it is functional.
In experiment [22] the target is T13, Delta-type opioid receptor (Homo sapiens, UniProt P41143). The experiment in a line: DOR agonists, SAR follow-up, image-based (AID 2370). In kind it is functional.
The target of experiment [23] is T11, Kappa-type opioid receptor. The experiment in a line: kappa opioid receptor blockers, image-based, SAR follow-up (AID 2348). Format: functional.
The target in experiment [24] is T12, Mu-type opioid receptor. The experiment in a line: mu opioid receptor blockers – image-based, SAR follow-up (AID 2420).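 Note: compounds added before stimulation of receptor with agonist DAMGO.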 In kind it is functional.
Experiment [25] has as its target T13, Delta-type opioid receptor. The experiment in a line: delta opioid receptor blockers – image-based, SAR follow-up (AID 2357). In kind it is functional.

The source made the active and inactive calls.

T13 sequence (P41143 whole entry): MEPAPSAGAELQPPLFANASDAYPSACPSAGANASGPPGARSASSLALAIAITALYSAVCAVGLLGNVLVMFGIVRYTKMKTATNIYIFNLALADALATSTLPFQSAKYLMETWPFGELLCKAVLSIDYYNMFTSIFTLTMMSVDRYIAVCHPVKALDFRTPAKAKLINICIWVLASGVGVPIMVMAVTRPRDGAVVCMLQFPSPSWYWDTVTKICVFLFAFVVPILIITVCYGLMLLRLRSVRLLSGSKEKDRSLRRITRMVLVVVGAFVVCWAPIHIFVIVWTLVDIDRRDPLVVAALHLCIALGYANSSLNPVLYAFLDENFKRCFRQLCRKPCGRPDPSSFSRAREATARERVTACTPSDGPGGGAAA
T1 sequence (Q01196 whole entry, the tested form may be a part): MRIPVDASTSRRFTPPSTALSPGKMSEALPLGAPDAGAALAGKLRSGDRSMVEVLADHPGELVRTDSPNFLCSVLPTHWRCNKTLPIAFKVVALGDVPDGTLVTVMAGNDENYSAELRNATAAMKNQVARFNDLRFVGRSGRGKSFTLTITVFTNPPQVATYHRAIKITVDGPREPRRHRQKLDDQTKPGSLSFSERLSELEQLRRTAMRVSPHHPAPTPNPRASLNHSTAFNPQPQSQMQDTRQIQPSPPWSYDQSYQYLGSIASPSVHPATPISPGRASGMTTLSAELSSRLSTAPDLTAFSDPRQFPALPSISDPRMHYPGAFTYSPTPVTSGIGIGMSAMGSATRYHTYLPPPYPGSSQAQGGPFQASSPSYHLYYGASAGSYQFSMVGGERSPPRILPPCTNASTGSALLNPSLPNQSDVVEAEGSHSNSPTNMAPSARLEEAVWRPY
T1 sequence (Q13951 whole entry, the tested form may be a part): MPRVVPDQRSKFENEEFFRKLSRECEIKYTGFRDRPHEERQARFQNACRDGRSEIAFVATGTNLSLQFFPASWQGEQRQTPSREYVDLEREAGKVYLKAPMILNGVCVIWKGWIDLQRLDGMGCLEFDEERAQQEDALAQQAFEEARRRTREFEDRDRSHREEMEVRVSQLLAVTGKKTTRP
T10 sequence (P34972 whole entry): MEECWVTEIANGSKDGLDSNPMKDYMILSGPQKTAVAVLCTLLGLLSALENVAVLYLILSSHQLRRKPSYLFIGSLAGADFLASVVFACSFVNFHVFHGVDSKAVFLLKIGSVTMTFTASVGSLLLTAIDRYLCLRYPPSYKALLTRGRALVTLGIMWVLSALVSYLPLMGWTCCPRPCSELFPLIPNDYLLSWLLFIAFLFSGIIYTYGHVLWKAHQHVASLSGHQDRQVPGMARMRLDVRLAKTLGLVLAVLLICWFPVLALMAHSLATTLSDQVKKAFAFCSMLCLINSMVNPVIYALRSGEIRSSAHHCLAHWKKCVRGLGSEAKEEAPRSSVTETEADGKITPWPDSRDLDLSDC
T8 sequence (Q9HC97 whole entry): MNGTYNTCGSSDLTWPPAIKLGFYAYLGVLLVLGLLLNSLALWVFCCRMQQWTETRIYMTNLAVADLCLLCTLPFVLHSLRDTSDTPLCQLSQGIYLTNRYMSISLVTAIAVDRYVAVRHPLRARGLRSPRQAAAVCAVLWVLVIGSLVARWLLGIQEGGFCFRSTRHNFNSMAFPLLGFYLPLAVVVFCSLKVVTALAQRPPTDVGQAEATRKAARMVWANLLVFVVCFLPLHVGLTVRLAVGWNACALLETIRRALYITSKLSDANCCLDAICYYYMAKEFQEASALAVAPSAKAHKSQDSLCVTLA
T3 sequence (P65502 whole entry): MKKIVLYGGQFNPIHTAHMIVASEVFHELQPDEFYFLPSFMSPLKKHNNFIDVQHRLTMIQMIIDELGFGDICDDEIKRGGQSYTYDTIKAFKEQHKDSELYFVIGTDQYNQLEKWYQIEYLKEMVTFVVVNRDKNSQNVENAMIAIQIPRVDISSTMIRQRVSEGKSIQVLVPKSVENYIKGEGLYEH
T12 sequence (P35372 whole entry): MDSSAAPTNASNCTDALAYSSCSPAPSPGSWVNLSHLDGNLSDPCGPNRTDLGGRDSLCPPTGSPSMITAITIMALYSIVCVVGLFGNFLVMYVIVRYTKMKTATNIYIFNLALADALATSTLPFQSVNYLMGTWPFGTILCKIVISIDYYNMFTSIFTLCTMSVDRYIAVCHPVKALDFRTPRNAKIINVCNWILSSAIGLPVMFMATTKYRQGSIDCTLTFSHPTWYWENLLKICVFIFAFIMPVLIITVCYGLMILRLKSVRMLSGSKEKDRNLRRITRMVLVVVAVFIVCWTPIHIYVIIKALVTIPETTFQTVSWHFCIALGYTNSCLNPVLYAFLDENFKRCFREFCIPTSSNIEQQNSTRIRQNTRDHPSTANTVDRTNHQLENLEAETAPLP
T9 sequence (P21554 whole entry): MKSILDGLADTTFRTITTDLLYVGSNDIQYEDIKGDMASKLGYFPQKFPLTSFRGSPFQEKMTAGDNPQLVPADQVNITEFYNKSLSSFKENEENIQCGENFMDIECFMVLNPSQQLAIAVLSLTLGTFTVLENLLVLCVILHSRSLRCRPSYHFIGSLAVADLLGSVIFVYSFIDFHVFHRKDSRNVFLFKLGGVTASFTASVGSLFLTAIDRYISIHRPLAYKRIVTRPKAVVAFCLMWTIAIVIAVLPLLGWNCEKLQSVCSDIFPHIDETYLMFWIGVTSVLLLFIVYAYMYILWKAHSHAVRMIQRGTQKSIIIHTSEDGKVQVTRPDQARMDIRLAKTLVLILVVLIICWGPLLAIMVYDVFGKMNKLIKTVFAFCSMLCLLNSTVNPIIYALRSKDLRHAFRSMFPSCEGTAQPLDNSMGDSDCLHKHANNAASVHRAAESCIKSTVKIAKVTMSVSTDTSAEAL
T11 sequence (P41145 whole entry): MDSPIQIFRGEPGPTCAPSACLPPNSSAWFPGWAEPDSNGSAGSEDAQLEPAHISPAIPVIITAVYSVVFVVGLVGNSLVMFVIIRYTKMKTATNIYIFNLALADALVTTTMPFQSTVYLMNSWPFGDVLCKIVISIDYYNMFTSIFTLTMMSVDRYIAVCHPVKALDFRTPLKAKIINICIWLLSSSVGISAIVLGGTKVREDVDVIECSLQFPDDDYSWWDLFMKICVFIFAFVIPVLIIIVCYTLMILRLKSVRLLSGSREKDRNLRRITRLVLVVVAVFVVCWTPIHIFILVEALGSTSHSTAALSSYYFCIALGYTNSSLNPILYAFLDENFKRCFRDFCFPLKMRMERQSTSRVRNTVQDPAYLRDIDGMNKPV
Chain of Induced myeloid leukemia cell differentiation protein Mcl-1 (Q07820 whole entry): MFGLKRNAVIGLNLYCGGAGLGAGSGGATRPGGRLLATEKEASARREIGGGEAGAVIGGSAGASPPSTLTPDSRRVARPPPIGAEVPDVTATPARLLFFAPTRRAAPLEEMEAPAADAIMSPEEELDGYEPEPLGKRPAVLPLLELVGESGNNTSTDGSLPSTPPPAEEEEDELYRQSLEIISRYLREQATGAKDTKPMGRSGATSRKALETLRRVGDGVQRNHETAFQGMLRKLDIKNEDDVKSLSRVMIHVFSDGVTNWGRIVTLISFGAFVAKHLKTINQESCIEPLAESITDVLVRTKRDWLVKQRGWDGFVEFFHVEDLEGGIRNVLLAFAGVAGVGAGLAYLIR
Chain of G-protein coupled receptor 55 (Q9Y2T6 whole entry): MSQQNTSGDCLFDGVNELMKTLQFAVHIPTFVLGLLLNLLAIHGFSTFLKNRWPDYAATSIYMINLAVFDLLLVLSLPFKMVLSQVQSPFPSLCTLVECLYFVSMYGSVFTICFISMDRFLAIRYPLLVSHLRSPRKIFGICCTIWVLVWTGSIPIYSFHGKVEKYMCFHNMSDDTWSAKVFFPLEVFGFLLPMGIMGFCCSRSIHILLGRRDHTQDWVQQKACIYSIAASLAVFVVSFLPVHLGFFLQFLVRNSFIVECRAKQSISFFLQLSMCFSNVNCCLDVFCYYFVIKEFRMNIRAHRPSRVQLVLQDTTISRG
Chain of Coagulation factor XII (P00748 20-372 limits assumed): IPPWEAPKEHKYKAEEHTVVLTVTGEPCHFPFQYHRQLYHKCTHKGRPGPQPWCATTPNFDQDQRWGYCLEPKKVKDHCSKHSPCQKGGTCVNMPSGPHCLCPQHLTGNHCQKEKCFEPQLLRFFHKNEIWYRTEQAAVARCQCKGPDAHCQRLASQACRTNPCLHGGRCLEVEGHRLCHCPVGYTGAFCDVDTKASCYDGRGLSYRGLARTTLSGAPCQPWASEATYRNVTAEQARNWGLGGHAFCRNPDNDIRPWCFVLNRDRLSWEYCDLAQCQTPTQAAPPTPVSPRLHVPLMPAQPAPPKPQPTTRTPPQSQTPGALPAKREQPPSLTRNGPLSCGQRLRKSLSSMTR
Chain of Coagulation factor XII (P00748 373-615 limits assumed): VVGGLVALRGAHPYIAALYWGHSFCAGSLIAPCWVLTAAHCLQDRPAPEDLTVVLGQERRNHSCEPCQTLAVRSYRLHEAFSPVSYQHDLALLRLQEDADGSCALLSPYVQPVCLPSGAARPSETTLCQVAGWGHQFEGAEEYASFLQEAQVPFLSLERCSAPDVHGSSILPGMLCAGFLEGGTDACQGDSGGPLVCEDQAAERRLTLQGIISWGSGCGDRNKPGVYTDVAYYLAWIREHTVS

As for `Oc1nc(C(Cl)Cl)nc2sc3c(c12)CCN(Cc1ccccc1)C3`, the IC50 in experiment [1] is 2.89 µM (active); in [2], 13.4 µM (active); in [3] it was 3.75 µM (not active); in experiment [5], 9.04 µM (active); in [6] it was 18.7 µM (active); in experiment [7], 7.87 µM (active). Besides, the EC50 in experiment [4] is > 53 µM (inactive).
As to `COc1cc(-c2nnco2)cc(OC)c1OC`, the IC50 on Coagulation factor XII is > 50 µM (inactive).
On to `COc1ccc2nc(N3C(=O)C(O)=C(C(=O)c4ccco4)C3c3ccc(C)o3)sc2c1` (centres undefined), for which the IC50 in experiment [8] was 1.2 µM (active); in experiment [9], 5 µM (active). In addition, the EC50 in experiment [10] is 5 µM (active).
With `Nc1c(C(=O)c2ccc(Cl)cc2)sc2nsc(SCCN3CCOCC3)c12`, the EC50 was > 300 µM (not active) in [11]; 74.2 µM (inconclusive) in [12]; > 9.97 µM (inactive) at Ion channel NompC; > 9.97 µM (not active) on Mucolipin-3; 9.14 µM (active) in experiment [4].
As to `N=c1c(C(=O)NCCc2ccccc2)cc2c(=O)n3ccccc3nc2n1C1CCCC1`, the EC50 in experiment [13] was > 32 µM (inactive); on Cannabinoid receptor 1 [14] it was > 32 µM (inactive); on Cannabinoid receptor 2 [19] it was 3.61 µM (active). The IC50 (in experiment [15]; on Cannabinoid receptor 1 [16]; in [17]; at Cannabinoid receptor 2 [18]) was > 32 µM (inactive) throughout.
Take `COc1ccc(CN(Cc2ccccn2)C(=O)CN2C(=O)COc3ccccc32)cc1`: the EC50 is > 10 µM (inactive) in experiment [20], > 32 µM (inactive) on Mu-type opioid receptor [21] and > 32 µM (inactive) in experiment [22]. The IC50 (in [23]; on Mu-type opioid receptor [24]; in [25]) was > 32 µM (inactive) throughout.
